Laboratory results published in patent publication US6821941B2, “Tablet of compacted particulated cleaning composition” (ISP Investments Inc., priority 2002, dated 2004).

Legend:
[1] = grams of solid to form a saturated solution in 100 g of water at 20° C.; cited from earlier work
[2] = Disintegration rate of dishwashing detergent tablet vs. additive ingredient; format: physicochemical; conditions: additive in standard dishwashing detergent formulation; based on a tablet of 20 g; FIGURE
From the text: The FIGURE is a bar graph of Disintegration Rate (g/min) vs. Additive Ingredient present in a standard dishwashing detergent formulation.
The dishwashing disintegrant tablets of the invention herein have a disintegration rate of at least 40 g/min (based on a tablet of 20 g).

Disintegration rate [2]: minimal
Structure (SMILES): NC(N)=O [Urea]
Water Solubility (g/100 g) [1]: >100 g/100 g
